This note sets out measurements from US9023858B2, “Substituted pyrido[2,3-d]pyrimidines as delta-5-desaturase inhibitors” (Takeda Pharmaceutical Company Limited, priority 2010, dated 2015).

The target in series [1] is T1, delta-5-desaturase (Rattus norvegicus, UniProt Q920R3).
T1 construct: a rat liver microsome fraction (10 μl) diluted to 3 mg/ml with a microsome buffer; from tissue; host or cells: rat liver microsome fraction
The experiment in a line: Inhibitory activity on binding of [3H]-labelled Reference Example 1 ligand to delta-5-desaturase (rat liver microsome fraction). The conditions noted are these: test compound 10 μM; for inhibition at 10 µM: 3 nM tritiated ligand of Reference Example 1, read-out: Binding inhibitory activity against compound bind to delta-5-desaturase Binding inhibition rate (%) at 10 μM; for Binding inhibitory activity against compound bind to delta-5-desaturase Binding inhibition rate (%) at 10 μM: 3 nM tritiated ligand of Reference Example 1, sodium salt. How it is done: Inhibitory Activity on Binding of N-[2-({4-oxo-3-[4-(2,2,2-trifluoroethoxy)[2,6-^3H2]phenyl]-3,4-dihydrothieno[3,4-d]pyrimidin-2-yl}sulfanyl)ethyl]acetamide (Reference Example 1) to delta-5-desaturase)
All tests were performed at room temperature at 200 μL/well. A rat liver microsome fraction (30 μg/well) was preincubated with a test compound at a final concentration of 10 μM for 15 min in an assay buffer (10 mM Tris-HCl (pH 7.5), 100 mM KCl, 10 mM NaF, 3 mM MgCl2, 0.005% Tween20 and 1 mM GSH). N-[2-({4-oxo-3-[4-(2,2,2-trifluoroethoxy) [2,6-^3H2]phenyl]-3,4-dihydrothieno[3,4-d]pyrimidin-2-yl}sulfanyl)ethyl]acetamide was added to a final concentration of 3 nM and the mixture was incubated for 150 min. For Bound/Free separation, the membrane fraction was added on a GF/C glass filter using a cell harvester. The GF/C glass filter was washed 5 times with 300 μl of ice-cooled assay buffer (without 0.005% Tween) to separate the ligand bound to delta-5-desaturase. 50 μl of MicroScinti 0 was added, and the radioactivity on the filter was measured by TopCount. To evaluate non-specific binding, 10 μM N-[2-({4-oxo-3-[4-(2,2,2-trifluoroethoxy)phenyl]-3,4-dihydrothieno[3,4-d]pyrimidin-2-yl}sulfanyl)ethyl]acetamide was used. The inhibitory rate (%) of the test compound (10 μM) on the binding of N-[2-({4-oxo-3-[4-(2,2,2-trifluoroethoxy) [2,6-^3H2]phenyl]-3,4-dihydrothieno[3,4-d]pyrimidin-2-yl}sulfanyl)ethyl]acetamide to delta-5-desaturase was determined.
In general terms: Liver microsomes are a subcellular fraction often used to study metabolism.

Series [2] concerns the target T1, delta-5-desaturase. The series can be described thus: Delta-5-desaturase inhibitory activity using rat liver microsome. It is filed as biochemical. The settings on record: test compound 10 μM; for delta-5-desaturase inhibitory activity (at liver microsome) Inhibitory activity (%) at 10 μM: sodium salt. As for the experimental part:
Delta-5-Desaturase Inhibitory Activity Using Rat Liver Microsome
The inhibitory activity of the test compound on delta-5-desaturase was measured by the method described below. To a solution of the test compound in DMSO prepared in advance was secondarily diluted with a buffer (300 mM NaH2PO4 [pH 7.4], 450 mM KCl, 30 mM NaF, 9 mM MgCl2, 4.5 mM glutathione [reduced form], 0.3% BSA [fatty acid free, SIGMA]) to give an assay buffer. The assay buffer (10 μl) was dispensed to a polypropylene deep 96-well block, and a rat liver microsome fraction (10 μl) diluted to 3 mg/ml with a microsome buffer (10 mM Tris-HCl [pH 7.4], 1 mM EDTA, 250 mM sucrose) was added. The enzyme reaction was started by adding 9 mM NADH, 9 mM ATP, 0.9 mM CoA, 10 μCi/ml (8E,11E,14E)-(1-^14C)eicosa-8,11,14-trienoic acid (PerkinElmer Inc.) (10 μl). The enzyme reaction was performed for 120 min at room temperature, and discontinued by the addition of 10 μl of 2.5M NaOH. After discontinuation of the reaction, the plate was sealed and incubated overnight at 55° C. to allow saponification. The fatty acid was extracted with solvent based on the Bligh & Dyer method described in Can. J. Biochem. Physiol., vol. 37, page 911 (1959) by adding formic acid:methanol:chloroform (1:6:3) (200 μl), maintaining the single layer state, sufficiently stirring the mixture and adding pure water (120 μl) for separation into two layers. The lower chloroform layer (10 μl) was spotted on a reversed-phase TLC plate (RP-18, 1154230001, Merck Japan, Ltd.), developed with acetonitrile:pure water:acetic acid (95:4.5:0.5), and the dried TLC plate was transcribed on Imaging Plate (Fuji Photo Film Co., Ltd.) for 5 hr or longer. The detection was performed using BAS-5000 (Fuji Photo Film Co., Ltd.), and the obtained spot image was numerically converted by Multi Gauge Ver2.3 (Fuji Photo Film Co., Ltd.) and a delta-5-desaturase inhibitory rate (%) of 10 μM test compound was determined.

Series [3] deals with T2, delta-5-desaturase (Homo sapiens, UniProt O60427).
T2 construct: endogenous in cells; host or cells: HepG2
T2 sequence (O60427 whole entry): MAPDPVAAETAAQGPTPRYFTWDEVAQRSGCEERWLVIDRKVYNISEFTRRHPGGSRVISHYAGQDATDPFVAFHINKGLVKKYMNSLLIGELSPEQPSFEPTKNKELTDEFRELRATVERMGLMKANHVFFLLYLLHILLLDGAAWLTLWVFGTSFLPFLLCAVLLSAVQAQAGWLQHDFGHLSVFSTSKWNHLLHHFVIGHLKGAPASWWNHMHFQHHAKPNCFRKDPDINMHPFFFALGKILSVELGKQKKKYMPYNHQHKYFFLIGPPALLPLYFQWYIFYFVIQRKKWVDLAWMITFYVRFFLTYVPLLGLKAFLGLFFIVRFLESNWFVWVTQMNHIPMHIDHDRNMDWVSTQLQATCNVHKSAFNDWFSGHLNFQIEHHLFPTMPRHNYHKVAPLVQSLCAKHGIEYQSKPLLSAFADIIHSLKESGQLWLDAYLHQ
The series can be described thus: Delta-5-desaturase inhibitory activity using HepG2 cell. It is filed as cell-based. The settings on record: test compound 1 μM. How it is done: Delta-5-Desaturase Inhibitory Activity Using HepG2 Cell
HepG2 was plated on a 96-well plate at 1×10^5 cells/well, and cultured overnight in DMEM (Dulbecco's modified Eagle medium) containing 10% FBS (fetal bovine serum). After washing (200 μL×2) with PBS (phosphate buffered saline), 40 μL of a reaction medium (DMEM, penicillin/streptomycin, 0.3% BSA) containing the test compound was added, and the mixture was preincubated in a CO2 incubator at 37° C. for 30 min. The reaction was started by adding a reaction medium (20 μL) containing 0.1 μCi [^14C]Eicosatrienoic acid, and the mixture was incubated in a CO2 incubator at 37° C. Incubation was performed for 3 hr, the cells were washed twice with 200 μL of PBS, detached with 50 μL of trypsin-EDTA and placed on a 96-deep well block. Furthermore, 20 μL of 2.5N NaOH was added, the plate was sealed and incubated overnight at 55° C. to allow saponification. The fatty acid extraction included acidifying with 10 μL of formic acid, adding chloroform:methanol (1:4), stirring, and further adding 200 μL of pure water to separate into two layers. The operation after development with TLC followed the method of detection system using TLC in a system using a rat liver microsome. A delta-5-desaturase inhibitory rate (%) of 1 μM test compound was determined.

Series [4] has as its target T3, delta-5-desaturase (Mus musculus, UniProt Q920L1).
T3 construct: the mice were anesthetized, and the liver was isolated; tissue CLEA Japan, Inc; host or cells: liver of C57BL/6J mice (in vivo dosing)
T3 sequence (Q920L1 1-447): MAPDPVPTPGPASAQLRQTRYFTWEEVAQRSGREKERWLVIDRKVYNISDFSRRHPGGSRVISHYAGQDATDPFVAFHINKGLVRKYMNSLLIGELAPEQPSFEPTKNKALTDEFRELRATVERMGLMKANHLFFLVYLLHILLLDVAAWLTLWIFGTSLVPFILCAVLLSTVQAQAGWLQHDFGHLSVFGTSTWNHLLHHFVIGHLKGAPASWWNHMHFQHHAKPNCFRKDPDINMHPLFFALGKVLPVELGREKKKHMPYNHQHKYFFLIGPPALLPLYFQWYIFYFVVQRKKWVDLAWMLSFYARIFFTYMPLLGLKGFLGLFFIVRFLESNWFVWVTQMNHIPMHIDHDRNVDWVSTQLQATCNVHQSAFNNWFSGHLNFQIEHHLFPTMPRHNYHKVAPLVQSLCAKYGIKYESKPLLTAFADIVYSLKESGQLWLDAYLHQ
The series can be described thus: Delta-5-desaturase inhibitory action in vivo (liver AA/DGLA ratio in mice). The conditions noted are these: 3 mg/kg by gavage for 4 days; male C57BL/6J mice; liver phospholipid fraction; solvent administration group as 100%. As for the experimental part: Delta-5-Desaturase Inhibitory Action In Vivo
The delta-5-desaturase inhibitory action of the test compound in vivo was evaluated by the following method. A suspension of a test compound (3 mg/kg) in 0.5% methylcellulose was administered by gavage every morning at 10 mL/kg for 4 days to 7- to 9-week-old male normal mice (C57BL/6J, CLEA Japan, Inc.) acclimated with a normal chow feed (CE-2, CLEA Japan, Inc.) in individual cages. In the next morning of the final administration, the mice were anesthetized, and the liver was isolated. Total lipid was extracted from about 40 mg of a liver sample with hexane-propanol solution, and a phospholipid fraction was extracted using a solid phase extraction column (Sep-Pak Vac NH2, Waters) and labeled with an esterified long-chain and short-chain fatty acid labeling reagent (YMC). The arachidonic acid and dihomo-γ-linolenic acid contents of the sample after labeling were measured by high performance liquid chromatography (Agilent 1200, Agilent Technologies). The arachidonic acid (AA) content was divided by the content of dihomo-γ-linolenic acid (DGLA) to obtain an AA/DGLA ratio. The decrease rate of the test compound administration group was calculated based on the AA/DGLA ratio of the solvent administration group as 100%, which was used as an index of the liver delta-5-desaturase inhibitory action in vivo.

Where a name gives a salt, the structure may show the parent alone.

T1 sequence (Q920R3 whole entry): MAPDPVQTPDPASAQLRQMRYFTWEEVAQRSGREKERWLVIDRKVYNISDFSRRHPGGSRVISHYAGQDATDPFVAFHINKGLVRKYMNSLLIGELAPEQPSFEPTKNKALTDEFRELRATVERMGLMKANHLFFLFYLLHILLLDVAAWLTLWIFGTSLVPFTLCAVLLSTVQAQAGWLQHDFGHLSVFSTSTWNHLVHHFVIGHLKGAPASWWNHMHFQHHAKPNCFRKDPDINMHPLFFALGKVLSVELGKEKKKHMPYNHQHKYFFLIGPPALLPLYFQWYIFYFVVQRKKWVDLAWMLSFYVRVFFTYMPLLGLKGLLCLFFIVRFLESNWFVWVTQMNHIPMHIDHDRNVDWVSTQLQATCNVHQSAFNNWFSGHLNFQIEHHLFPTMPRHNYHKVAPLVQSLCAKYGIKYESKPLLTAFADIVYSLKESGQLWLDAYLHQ

Turning to `CCSc1nc2nc(OC)ccc2c(=O)n1-c1ccc(OCC(F)(F)F)cc1` [Example 1, 2-(ethylsulfanyl)-7-methoxy-3-[4-(2,2,2-trifluoroethoxy)phenyl]pyrido[2,3-d]pyrimidin-4(3H)-one], the inhibition at 10 µM stood at 94% at delta-5-desaturase [1] and 100% on delta-5-desaturase [2]. Besides, on delta-5-desaturase [3], the inhibition at 1 µM worked out at 101%. The “lowering rate (%) of arachidonic acid/dihomo-γ-linolenic acid ratio” value on delta-5-desaturase [4] is listed as 73%.
The like results for `CCOc1nc2nc(OC)ccc2c(=O)n1-c1ccc(OCC(F)(F)F)cc1` [Example 4, 2-ethoxy-7-methoxy-3-[4-(2,2,2-trifluoroethoxy)phenyl]pyrido[2,3-d]pyrimidin-4(3H)-one] were, in that order, 99%, 102%, 96% and 64%.
With `CCOc1nc2[nH]c(=O)ccc2c(=O)n1-c1ccc(OCC(F)(F)F)cc1` [Example 10, 2-ethoxy-3-[4-(2,2,2-trifluoroethoxy)phenyl]pyrido[2,3-d]pyrimidine-4,7(3H,8H)-dione sodium salt], on delta-5-desaturase [1], the “Binding inhibitory activity against compound bind to delta-5-desaturase Binding inhibition rate (%) at 10 μM” value is 94%. On delta-5-desaturase [2], the “delta-5-desaturase inhibitory activity (at liver microsome) Inhibitory activity (%) at 10 μM” value was 98%. Also, the “lowering rate (%) of arachidonic acid/dihomo-γ-linolenic acid ratio” value at delta-5-desaturase [4] stood at 71%.
The like results for `O=c1ccc2c(=O)n(-c3ccc(OCC(F)(F)F)cc3)c(OCC(F)(F)F)nc2[nH]1` [Example 12, 2-(2,2,2-trifluoroethoxy)-3-[4-(2,2,2-trifluoroethoxy)phenyl]pyrido[2,3-d]pyrimidine-4,7(3H,8H)-dione sodium salt] were, in that order, 96%, 99% and 70%.
In the case of `O=c1ccc2c(=O)n(-c3ccc(OCC(F)(F)F)cc3)c(OC3CCC(F)(F)CC3)nc2[nH]1` [Example 15, 2-[(4,4-difluorocyclohexyl)oxy]-3-[4-(2,2,2-trifluoroethoxy)phenyl]pyrido[2,3-d]pyrimidine-4,7(3H,8H)-dione], the inhibition at 10 µM on delta-5-desaturase [1] was found to be 99%; against delta-5-desaturase [2], 104%. In addition, the inhibition at 1 µM against delta-5-desaturase [3] came out at 102%. Besides, the “lowering rate (%) of arachidonic acid/dihomo-γ-linolenic acid ratio” value at delta-5-desaturase [4] is on record as 69%.
For the compound `COCCOc1nccc2c(=O)n(-c3ccc(OCC(F)(F)F)cc3)c(OCCOC)nc12` [Example 35, 2,8-bis(2-methoxyethoxy)-3-[4-(2,2,2-trifluoroethoxy)phenyl]pyrido[3,4-d]pyrimidin-4(3H)-one], the values for the inhibition at 10 µM at delta-5-desaturase [1] and on delta-5-desaturase [2] were 89% and 91%, respectively. The inhibition at 1 µM against delta-5-desaturase [3] stood at 91%.
Regarding `CCSc1nc2c(=O)n(C)ccc2c(=O)n1-c1ccc(OCC(F)(F)F)cc1` [Example 36, 2-(ethylsulfanyl)-7-methyl-3-[4-(2,2,2-trifluoroethoxy)phenyl]-3,7-dihydropyrido[3,4-d]pyrimidine-4,8-dione], the inhibition at 10 µM on delta-5-desaturase [1] and on delta-5-desaturase [2] was 101% in each case. Besides, on delta-5-desaturase [3], the inhibition at 1 µM was determined as 92%.
On to `CCSc1nc2nc(OC)cnc2c(=O)n1-c1ccc(OCC(F)(F)F)cc1` [Example 37, 2-(ethylsulfanyl)-7-methoxy-3-[4-(2,2,2-trifluoroethoxy)phenyl]pteridin-4(3H)-one], for which the inhibition at 10 µM is 97% on delta-5-desaturase [1] and 99% against delta-5-desaturase [2]. For the same compound, the inhibition at 1 µM on delta-5-desaturase [3] turned out to be 93%.
The corresponding values for `CCSc1nc2[nH]c(=O)cnc2c(=O)n1-c1ccc(OCC(F)(F)F)cc1` [Example 38, 2-(ethylsulfanyl)-3-[4-(2,2,2-trifluoroethoxy)phenyl]pteridine-4,7(3H,8H)-dione] are 91%, 95% and 76%.
As for `O=C1CCc2c(nc(CCC(F)(F)F)n(-c3ccc(OCC(F)(F)F)cc3)c2=O)N1` [Example 39, 3-[4-(2,2,2-trifluoroethoxy)phenyl]-2-(3,3,3-trifluoropropyl)-5,6-dihydropyrido[2,3-d]pyrimidine-4,7(3H,8H)-dione], the inhibition at 10 µM at delta-5-desaturase [1] amounted to 91%. Besides, the inhibition at 1 µM against delta-5-desaturase [3] amounted to 98%. The “lowering rate (%) of arachidonic acid/dihomo-γ-linolenic acid ratio” value on delta-5-desaturase [4] is 67%.
